# Measurements as given in patent publication US9828349B2, “1-aryl-1-hydroxy-2,3-diamino-propyl amines, 1-heteroaryl-1-hydroxy-2,3-diamino-propyl amines and related compounds having analgesic and/or immuno stimulant activity” (Allergan, Inc., priority 2005, dated 2017).
# Columns and labels:
# [1] = test system: tactile allodynia (Chung model); assay: Chung model: reversal of tactile allodynia after spinal nerve ligation (von Frey hairs); format: in vivo; settings: highest % allodynia reversal out of 15, 30, 60 min post-drug, rat
# From the text: An art-accepted model or assay for measuring an analgesic effect of a compound in chronic pain (in particular peripheral neuropathy) is the model known as Kim and Chung 1992, Pain […], pp 355-363 (Chung model). This model involves the surgical ligation of the L5 (and optionally the L6) spinal nerves on one side in experimental animals. Rats recovering from the surgery gain weight and display a level of general activity similar to that of normal rats. However, these rats develop abnormalities of the foot, wherein the hindpaw is moderately everted and the toes are held together. More importantly, the hindpaw on the side affected by the surgery appears to become sensitive to low-threshold mechanical stimuli and will perceive pain instead of the faint sensation of touch. This sensitivity to normally non-painful touch, called “tactile allodynia”, develops within the first week after surgery and lasts for at least two months. The allodynia response includes lifting the affected hindpaw to escape from the stimulus, licking the paw and holding it in the air for many seconds. None of these responses is normally seen in the control group.
# To produce the tactile allodynia, rats are anesthetized before surgery. The surgical site is shaved and prepared either with betadine or Novacaine. Incision is made from the thoracic vertebra XIII down toward the sacrum. Muscle tissue is separated from the spinal vertebra (left side) at the L4-S2 levels. […]
# Tactile allodynia is assessed via von Frey hairs, which are a series of fine hairs with incremental differences in stiffness. […] The applied force has been calculated to range from 0.41 to 15.1 grams. […] The 50% paw withdrawal threshold is determined using the method of Dixon, W. J., Ann. […] Tactile allodynia is measured prior to and 15, 30, and 60 minutes after drug administration. The post-drug threshold is compared to the pre-drug threshold and the percent reversal of tactile sensitivity is calculated based on a normal threshold of 15.1 grams. […]
# [2] = target: T1, GlcCer synthase (Homo sapiens, UniProt Q16739); settings: cited from earlier work
# T1 sequence (Q16739 1-394): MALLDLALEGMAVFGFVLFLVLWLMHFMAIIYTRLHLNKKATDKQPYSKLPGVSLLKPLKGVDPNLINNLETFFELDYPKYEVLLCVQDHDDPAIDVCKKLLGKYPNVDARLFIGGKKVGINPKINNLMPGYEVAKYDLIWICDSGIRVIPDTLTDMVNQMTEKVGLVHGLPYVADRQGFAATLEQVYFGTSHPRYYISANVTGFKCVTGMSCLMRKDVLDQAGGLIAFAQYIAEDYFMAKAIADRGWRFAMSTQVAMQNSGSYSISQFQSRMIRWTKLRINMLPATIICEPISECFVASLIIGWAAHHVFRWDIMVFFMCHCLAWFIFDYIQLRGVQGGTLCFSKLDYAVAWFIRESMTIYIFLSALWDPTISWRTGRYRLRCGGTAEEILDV
# [3] = test system: spatial memory deficit after transient forebrain ischemia; settings: treatment after transient forebrain ischemia in rats; cited from earlier work
SMILES,Peak % Pain reversal ([1]; 300 μg/kg IP) [%],inhibition of GCS (glucosylceramide synthase) [2],further results
"N[C@@H](CN1CCCC1)[C@@H](O)c1ccncc1 (racemic) [Compound 46, DL-threo-2-amino-1-(pyridin-4-yl)-3-(pyrrolidin-1-yl)propan-1-ol]",,,Peak % Pain reversal ([1]; 30 μg/kg IP): 96%
"Cl.O=C(N[C@@H](CN1CCOCC1)[C@@H](O)c1ccccc1)OCc1ccccc1 [Compound 1, benzyl L-threo-1-hydroxy-3-morpholino-1-phenylpropan-2-ylcarbamate hydrochloride]",44,,
"CC(=O)O[C@@H](c1ccccc1)[C@H](CN1CCOCC1)NC(=O)OCc1ccccc1.Cl [Compound 3, benzyl L-threo-1-acetoxy-3-morpholino-1-phenylpropan-2-ylcarbamate hydrochloride]",92,,
CCCCCCCCCCCCCCCC(=O)N[C@H](CN1CCCC1)[C@H](O)c1ccc(O)cc1 [D-threo-4′-hydroxy-P4],,one of the most potent inhibitor of GCS,
"CCCCCCCCCC(=O)N[C@@H](CN1CCOCC1)[C@@H](O)c1ccccc1 [L-threo-PDMP, (1S,2S)-1-phenyl-2-decanoylamino-3-morpholino-1-propanol]",,,deficit of a well learned spatial memory (8-arm maze task) [3]: ameliorated the deficit of a well learned spatial memory
"O=C(N[C@H](CN1CCCC1)[C@H](O)c1ccccc1)OCc1ccccc1 [PBPP, D-threo-1-phenyl-2-benzyloxycarbonylamino-3-pyrrolidino-1-propanol]",,potent GCS inhibitor,
